The test system of the test is P. vulgaris NCTC4175. Kind of test: Urease assay: effect of fragrance on ammonia production (pH of urea-supplemented microbial suspension). The settings on record: result in words. Type of test: cell-based. The procedure: Urease Assay—Estimation of Fragrance and Fragrance Ingredients Effect on Ammonia Production The method adopted was based on the rapid method devised by C. A. Stuart, Elizabeth van Stratum and Robert Rustigan Further Studies on Urease Production by Proteus and Related Organisms J. Bacteriol. 1945, 49:437-444. SSR Medium: 380 ml distilled water, 364 mg KH2PO4, 380 mg Na2HPO4, 8 g Urea, 40 mg Yeast extract, 20 ml 0.02% phenol red indicator, pH 6.8, solution filter sterilised. Culture: Liquid culture of P. vulgaris NCTC4175 was prepared by adding loops of fresh culture from solid media (Tryptone Soya Agar) to sterile 0.1% special peptone solution. Absorbance of culture was adjusted to be OD610 nm>2.3 Fragrances were aseptically prepared at 2500 ppm in medium in duplicate (5 ml volumes) using solubiser Synperonic 91/10 at ratio of 1:2 fragrance: solubiliser. In addition 5 ml volumes of positive and negative controls were prepared. Positive controls and all test solutions were inoculated by adding 200 μl of prepared culture, mixed and incubated for 24 hours @37° C. No culture was added to the negative growth controls. Initially solutions were orange in colour. Urease activity can be noted by the production of a purple/red colour. The degree of urease activity/ammonia production was assessed by pH electrode.

Each structure is given as a SMILES string.

Consider `CCC(=O)N(CC)c1cccc(C)c1` [N-ethyl-N-(3-methylphenyl)propananoide, N-ethyl-N-(3-methylphenyl)propanamide], for which the urease inhibitory efficacy result is “highly active”.

These data come from patent US8821847B2, “Perfume compositions” (Givaudan Nederland Services B.V., priority 2006, dated 2014).
